Experimental data from patent publication US20260285863A1, “COMPOUNDS CAPABLE OF MODULATING GPR65” (Pathios Therapeutics Limited, priority 2023, published 2026).

Target: T1, human recombinant GPR65 (Homo sapiens, UniProt Q8IYL9)
T1 construct: host or cells: 1321N1 human astrocytoma cells (1321N1-hrGPR65)
Experiment: Human GPR65 cAMP HTRF antagonist assay
Format: cell-based
Settings: 1321N1-hrGPR65 cells, assay pH 7.2, cAMP HTRF; read-out: hGPR65 IC50
Description: The “Human GPR65 cyclic adenosine monophosphate (cAMP) Homogeneous Time Resolved Fluorescence (HTRF) antagonist assay”, or simply “cAMP assay”, as described in the accompanying examples, can be used to measure the potency of GPR65 modulators, which is expressed as the concentration of compound required to reduce the increase in cAMP concentration upon GPR65 activation by 50% (i.e. an IC50).
Human GPR65 Cyclic Adenosine Monophosphate (cAMP) Homogeneous Time Resolved Fluorescence (HTRF) Antagonist Assay Procedure
IC50data was obtained by the following procedure:
1321N1 human astrocytoma cells stably expressing human recombinant GPR65 (1321N1-hrGPR65 cells, EuroscreenFast) were cultured according to the vendor's instructions.
Compounds were tested for their ability to antagonise GPR65, through measuring the concentration of cytoplasmic cAMP following treatment of the cells at a pH of 7.2 to activate GPR65 signalling and addition of the compound to be tested. The extent to which the expected rise in cAMP concentration upon GPR65 activation was suppressed by the added compound is indicative of its potency. The assay was carried out according to EuroscreenFast assay Methodology as follows.
On the day of the assay, test compounds were added to 384-well, low volume, white microtiter plates by acoustic dispensing. KRH buffer (5 mM KCl, 1.25 mM MgSO4, 124 mM NaCl, 25 mM HEPES, 13.3 mM Glucose, 1.25 mM KH2PO4 and 1.45 mM CaCl2) was adjusted to pH 6.5, pH 7.6 and pH 8.4 by adding NaOH. 1321N1-hGPR65 cells were rapidly thawed and diluted in KRH, pH 7.6 prior to centrifugation at 300×g for 5 min and resuspension in assay buffer (KRH, pH 7.6, supplemented with 1 mM 3-isobutyl-1-methylxanthine (IBMX) and 200 μM ethylenediaminetetraacetic acid (EDTA)). Cells were added to assay plates at a density of 2,000 cells per well in a volume of […]. Assay plates were briefly centrifuged at 100×g and then incubated at room temperature for 30 min. Cells were stimulated by the addition of 5 μL KRH, pH 6.5, to achieve an assay pH of 7.2, while control wells received […] KRH, pH 8.4 to achieve an assay pH of 7.9. Assay plates were briefly centrifuged at 100×g and then incubated at room temperature for 30 min.
Accumulation of cAMP was detected by cAMP HTRF kit (Cisbio). d2-labeled cAMP and cryptate-labeled anti-cAMP antibody in Lysis and Detection Buffer (Cisbio) were added to assay plates, and the plates were incubated at room temperature for 1 h. HTRF measurements were performed using a Pherastar FSX instrument. Acceptor and donor emission signals were measured at 665 nm and 620 nm, respectively, and HTRF ratios were calculated as signal665 nm/signal620 nm×104. Data were normalised to high and low control values and fitted with 4-parameter logistic regression to determine hGPR65 IC50 values for the test compounds, which are shown in Table 1.

T1 sequence (Q8IYL9 whole entry): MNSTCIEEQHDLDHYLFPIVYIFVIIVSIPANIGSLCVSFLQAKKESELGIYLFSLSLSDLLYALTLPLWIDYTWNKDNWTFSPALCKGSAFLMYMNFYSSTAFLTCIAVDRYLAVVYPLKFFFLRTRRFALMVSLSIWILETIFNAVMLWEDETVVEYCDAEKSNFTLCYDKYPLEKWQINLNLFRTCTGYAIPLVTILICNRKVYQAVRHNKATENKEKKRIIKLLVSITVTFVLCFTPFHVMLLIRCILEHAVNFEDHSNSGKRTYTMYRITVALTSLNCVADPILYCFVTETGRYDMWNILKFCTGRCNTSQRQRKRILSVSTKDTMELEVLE

O=C(Nc1cc(Cl)c(-c2ccc3nonc3c2)cn1)N1C2CCC1[C@H](F)c1c2ccnc1F (mixture of isomers) [Compound 5, (±,9S)-N-(5-(benzo[c][1,2,5]oxadiazol-5-yl)-4-chloropyridin-2-yl)-1,9-difluoro-6,7,8,9-tetrahydro-5H-5,8-epiminocyclohepta[c]pyridine-10-carboxamide]
IC50: < 500 nM

O=C(Nc1cc(Cl)c(C(F)(F)F)cn1)N1C2CCC1[C@H](F)c1c2ccnc1F (mixture of isomers) [Compound 33, (±)(9S)-N-(4-chloro-5-(trifluoromethyl)pyridin-2-yl)-1,9-difluoro-6,7,8,9-tetrahydro-5H-5,8-epiminocyclohepta[c]pyridine-10-carboxamide]
IC50: < 500 nM

O=C(Nc1cc(Cl)c(C(F)(F)F)cn1)N1C2CCC1C(F)(F)c1c2ccnc1F (racemic) [Compound 34, (±)-N-(4-chloro-5-(trifluoromethyl)pyridin-2-yl)-1,9,9-trifluoro-6,7,8,9-tetrahydro-5H-5,8-epiminocyclohepta[c]pyridine-10-carboxamide]
IC50: < 500 nM

O=C(Nc1cc(Cl)c(Cl)cn1)N1C2CCC1[C@H](F)c1c2ccnc1F (mixture of isomers) [Compound 35, (±)(9S)-N-(4,5-dichloropyridin-2-yl)-1,9-difluoro-6,7,8,9-tetrahydro-5H-5,8-epiminocyclohepta[c]pyridine-10-carboxamide]
IC50: < 500 nM

O=C(Nc1cc(Cl)c(Cl)cn1)N1C2CCC1C(F)(F)c1c2ccnc1F (racemic) [Compound 36, (±)-N-(4,5-dichloropyridin-2-yl)-1,9,9-trifluoro-6,7,8,9-tetrahydro-5H-5,8-epiminocyclohepta[c]pyridine-10-carboxamide]
IC50: < 500 nM

O=C(Nc1cc(Cl)c(-c2ccc(OCC(F)(F)F)nc2)cc1F)N1C2CCC1C(F)(F)c1c2ccnc1F (racemic) [Compound 70, (±)-N-(5-Chloro-2-fluoro-4-(6-(2,2,2-trifluoroethoxy)pyridin-3-yl)phenyl)-1,9,9-trifluoro-6,7,8,9-tetrahydro-5H-5,8-epiminocyclohepta[c]pyridine-10-carboxamide]
IC50: < 500 nM

O=C(Nc1cc(Cl)c(-c2ccc(OC[C@@H]3CCOC3)nc2)cc1F)N1[C@H]2CC[C@@H]1c1c[nH]c(=O)cc1C2 (single isomer, unassigned) [Compound 47]
IC50: < 500 nM

O=C(Nc1cc(Cl)c(-c2ccc(OC[C@H]3CCOC3)nc2)cc1F)N1[C@H]2CC[C@@H]1c1c[nH]c(=O)cc1C2 (single isomer, unassigned) [Compound 48]
IC50: < 500 nM

O=C(Nc1cc(Cl)c(-c2ccc(O[C@@H]3CCN(CC(F)(F)F)C3)nc2)cc1F)N1[C@H]2CC[C@@H]1c1c[nH]c(=O)cc1C2 (single isomer, unassigned) [Compound 77]
IC50: < 500 nM

O=C(Nc1cc(Cl)c(-c2ccc(O[C@H]3CCN(CC(F)(F)F)C3)nc2)cc1F)N1[C@H]2CC[C@@H]1c1c[nH]c(=O)cc1C2 (single isomer, unassigned) [Compound 78]
IC50: < 500 nM

O=C(Nc1cc(Cl)c(-c2ccc(OCC34COC(C3)C4)nc2)cc1F)N1[C@H]2CC[C@@H]1c1n[nH]c(=O)cc1C2 [Compound 1, (6S,9R)-N-(4-(6-((2-oxabicyclo[2.1.1]hexan-4-yl)methoxy)pyridin-3-yl)-5-chloro-2-fluorophenyl)-3-oxo-3,5,6,7,8,9-hexahydro-2H-6,9-epiminocyclohepta[c]pyridazine-10-carboxamide]
IC50: < 500 nM

O=C(Nc1cc(Cl)c(-c2ccc(NCC(F)(F)F)nc2)cc1F)N1[C@H]2CC[C@@H]1c1n[nH]c(=O)cc1C2 [Compound 2, (6S,9R)-N-(5-chloro-2-fluoro-4-(6-((2,2,2-trifluoroethyl)amino)pyridin-3-yl)phenyl)-3-oxo-3,5,6,7,8,9-hexahydro-2H-6,9-epiminocyclohepta[c]pyridazine-10-carboxamide]
IC50: < 500 nM

CN(CC(F)(F)F)c1ccc(-c2cc(F)c(NC(=O)N3[C@H]4CC[C@@H]3c3n[nH]c(=O)cc3C4)cc2Cl)cn1 [Compound 3, (6S,9R)-N-(5-chloro-2-fluoro-4-(6-(methyl(2,2,2-trifluoroethyl)amino)pyridin-3-yl)phenyl)-3-oxo-3,5,6,7,8,9-hexahydro-2H-6,9-epiminocyclohepta[c]pyridazine-10-carboxamide]
IC50: < 500 nM

O=C(Nc1cc(Cl)c(-c2ccc(OCC(F)(F)F)nn2)cc1F)N1[C@H]2CC[C@@H]1c1n[nH]c(=O)cc1C2 [Compound 6, (6S,9R)-N-(5-chloro-2-fluoro-4-(6-(2,2,2-trifluoroethoxy)pyridazin-3-yl)phenyl)-3-oxo-3,5,6,7,8,9-hexahydro-2H-6,9-epiminocyclohepta[c]pyridazine-10-carboxamide]
IC50: < 500 nM

O=C(NC12CC(c3ccc(OCC(F)(F)F)nc3)(C1)C2)N1[C@H]2CC[C@@H]1c1n[nH]c(=O)cc1C2 [Compound 7, (6S,9R)-3-Oxo-N-(3-(6-(2,2,2-trifluoroethoxy)pyridin-3-yl)bicyclo[1.1.1]pentan-1-yl)-3,5,6,7,8,9-hexahydro-2H-6,9-epiminocyclohepta[c]pyridazine-10-carboxamide]
IC50: 500 to 5000 nM

CN(CC(F)(F)F)c1ccc(-c2cc(F)c(NC(=O)N3[C@H]4CC[C@@H]3c3c[nH]c(=O)cc3C4)cc2Cl)cn1 [Compound 8, (6S,9R)-N-(5-chloro-2-fluoro-4-(6-(methyl(2,2,2-trifluoroethyl)amino)pyridin-3-yl)phenyl)-3-oxo-3,5,6,7,8,9-hexahydro-2H-6,9-epiminocyclohepta[c]pyridine-10-carboxamide]
IC50: < 500 nM

CN(C(=O)N1[C@H]2CC[C@@H]1c1n[nH]c(=O)cc1C2)c1cc(Cl)c(-c2ccc(OCC(F)(F)F)nc2)cc1F [Compound 9, (6S,9R)-N-(5-chloro-2-fluoro-4-(6-(2,2,2-trifluoroethoxy)pyridin-3-yl)phenyl)-N-methyl-3-oxo-3,5,6,7,8,9-hexahydro-2H-6,9-epiminocyclohepta[c]pyridazine-10-carboxamide]
IC50: 500 to 5000 nM

O=C(Nc1cc(Cl)c(-c2ccc(OC3CCCC3)nc2)cc1F)N1[C@H]2CC[C@@H]1c1c[nH]c(=O)cc1C2 [Compound 10, (6S,9R)-N-(5-chloro-4-(6-(cyclopentyloxy)pyridin-3-yl)-2-fluorophenyl)-3-oxo-3,5,6,7,8,9-hexahydro-2H-6,9-epiminocyclohepta[c]pyridine-10-carboxamide]
IC50: < 500 nM

O=C(Nc1cc(Cl)c(-c2cnc(OCC(F)(F)F)c(F)c2)cc1F)N1[C@H]2CC[C@@H]1c1c[nH]c(=O)cc1C2 [Compound 11, (6S,9R)-N-(5-chloro-2-fluoro-4-(5-fluoro-6-(2,2,2-trifluoroethoxy)pyridin-3-yl)phenyl)-3-oxo-3,5,6,7,8,9-hexahydro-2H-6,9-epiminocyclohepta[c]pyridine-10-carboxamide]
IC50: < 500 nM

O=C(Nc1cc(Cl)c(-c2ccc(OCC(F)(F)F)nn2)cc1F)N1[C@H]2CC[C@@H]1c1c[nH]c(=O)cc1C2 [Compound 12, (6S,9R)-N-(5-chloro-2-fluoro-4-(6-(2,2,2-trifluoroethoxy)pyridazin-3-yl)phenyl)-3-oxo-3,5,6,7,8,9-hexahydro-2H-6,9-epiminocyclohepta[c]pyridine-10-carboxamide]
IC50: < 500 nM
